Experimental findings from patent US20180051309A1, “METHODS TO ASSESS MONITOR AND CONTROL BACTERIAL BIOFILMS” (ExxonMobil Research and Engineering Company, priority 2016, published 2018) are described below.

The assay relates to prophage regions DVU0189-DVU0221 and DVU2847-DVU2879. The assay is described as follows: normalized gene expression (FPKM) of two prophage regions in planktonic and biofilm samples. The assay is classed as cell-based, Desulfovibrio vulgaris. The following applies: biofilm controlled via indole, FIG. 1. The source says: Overexpression of prophages is observed in biofilm samples when compared to planktonic samples.

In the case of `c1ccc2[nH]ccc2c1` [indole], the phage genes expression result is “repressed phage genes expression”.
